The term MIC denotes the least concentration at which growth counts as inhibited. Read a low MIC as a more susceptible organism.

The text below walks through data of PMC8947439, “Antimicrobial Properties of a Peptide Derived from the Male Fertility Factor kl2 Protein of Drosophila melanogaster” (Current Issues in Molecular Biology, 2022).

Residues, ends and D or L forms follow the SMILES beside them.

Test [1] deals with E. coli HB101. The format is cell-based, Escherichia coli. Particulars: HB101, 2 h. The protocol: (§1) Bacteria were grown in brain heart infusion (BHI) medium broth at 37 °C. For the microdilution assay (MDA) and minimal inhibitory concentration (MIC) assay, bacteria in the mid-logarithmic phase were harvested and diluted to 4 × 10^5 CFU/mL with Dulbecco’s PBS. Bacteria were incubated with a series of 2-fold dilutions of indicated peptides or PBS for 2 h. The number of viable bacteria were enumerated by counting the colony-forming units (CFU). The MIC was defined as the lowest antimicrobial concentration which prevents the visible growth of bacteria.

Another test deals with B. subtilis ATCC 9372. Type of test: cell-based, Bacillus subtilis. The protocol:
as §1

Test [2] concerns E. coli HB101. Kind of test: microdilution assay (MDA), viable counts (CFU). The format is cell-based, Escherichia coli. Particulars: peptide 100 μM, 2 h, 4 × 10^5 CFU/mL in Dulbecco's PBS, CFU counting, N = 3. The method, then: as §1
The test system of a further test is S. aureus 8325-4. Put plainly: microdilution assay (MDA), viable counts (CFU). As to conditions: peptide 100 μM, 2 h, 4 × 10^5 CFU/mL in Dulbecco's PBS, CFU counting, N = 3. The format is cell-based, Staphylococcus aureus. The protocol:
as §1
Background: Dilution methods test growth across graded concentrations, often in twofold steps.

`CC[C@H](C)[C@H](NC(=O)[C@H](CC(C)C)NC(=O)[C@H](C)NC(=O)[C@H](CCCNC(=N)N)NC(=O)[C@H](Cc1ccccc1)NC(=O)[C@H](CC(C)C)NC(=O)[C@H](CCCCN)NC(=O)[C@@H](N)CCCNC(=N)N)C(=O)N[C@@H](CCC(N)=O)C(=O)N[C@@H](C)C(=O)N[C@@H](CS)C(=O)N[C@@H](CC(=O)O)C(=O)N[C@@H](CCCNC(=N)N)C(=O)N[C@@H](CCCCN)C(=O)O` [MFF-p1] (H-RKLFRALIQACDRK-OH) returned an MIC in the test with E. coli HB101 [1] of 6 to 12.5 µM. For the same molecule, in the test on B. subtilis ATCC 9372 (ATCC 9372, 2 h, 100 μM), the percent of killing entry was “around 90%”.
Consider “LKDVFRDFIVVCQK [Z-p1, peptide that is a part of the Zizimin protein of Drosophila melanogaster]”, for which the “antimicrobial activity, inhibition of viable counts” value in the test with E. coli HB101 [2] is recorded as “did not demonstrate antimicrobial activity”; in the test with S. aureus 8325-4 it was “did not demonstrate antimicrobial activity”; in the test with B. subtilis ATCC 9372 (peptide 100 μM, 2 h, 4 × 10^5 CFU/mL in Dulbecco's PBS, CFU counting, N = 3) it was “did not demonstrate antimicrobial activity”.
